# Laboratory results from ChEMBL document CHEMBL3217459, “3-Diarylethyne quinazolinones: a new class of senescence inducers” (Medchemcomm, 2013).
# Calls of active or inactive are those of the source. The calls are words filed in the database; no cut-off is given here.
# Legend:
# SW116 = experiment: Induction of senescence in human SW116 cells assessed as increase in p21 expression at 4 uM after 24 hrs by Western blot analysis; format: functional, cell-based
# MCF7 [1] = experiment: Induction of senescence in human MCF7 cells assessed as increase in p16 expression at 4 uM after 24 hrs by Western blot analysis; format: functional, cell-based
# [2] = target: Telomerase reverse transcriptase (Homo sapiens) (UniProt O14746); experiment: Inhibition of telomerase activity in human MCF7 cells assessed as un-repairable DNA damage at 4 uM after 24 hrs; format: cell-based
# MCF7 [3] = experiment: Induction of senescence in human MCF7 cells assessed as increase in p21 expression at 4 uM after 24 hrs by Western blot analysis; format: functional, cell-based
# MCF7 [4] = experiment: Cytotoxicity against human MCF7 cells assessed as cell viability at 2 uM after 48 hrs by MTT assay; format: functional
# MCF7 [5] = experiment: Cell cycle arrest in human MCF7 cells assessed as accumulation at G2/M phase at 4 uM after 24 hrs using propidium iodide staining by FACS analysis (reference value: 19%); format: functional
# MCF7 (Homo sapiens) = experiment: Induction of senescence in human MCF7 cells assessed as increase in p16 expression at 4 uM after 24 hrs by Western blot analysis
# MCF7 [6] = experiment: Cell cycle arrest in human MCF7 cells assessed as accumulation at S phase at 4 uM after 24 hrs using propidium iodide staining by FACS analysis (reference value: 11%); format: functional
# MCF7 [7] = experiment: Induction of senescence in human MCF7 cells assessed as blue colotation and adopted a flattened morphology with spread out cytoplasm at 4 uM after 72 hrs by SA-beta-gal assay; format: functional, cell-based
# MCF7 [8] = experiment: Induction of DNA damage in human MCF7 cells assessed as increase in TRF1 level measured at 4 uM after 24 hrs by Western blot analysis; format: functional, cell-based
# MCF7 [9] = experiment: Induction of senescence in human MCF7 cells expressing wild type p53 at 4 uM after 24 hrs by Western blot analysis; format: functional, cell-based
# MCF7 [10] = experiment: Cytotoxicity against human MCF7 cells assessed as cell viability at 4 uM after 48 hrs by MTT assay; format: functional
# COLO 205 = experiment: Cytotoxicity against human COLO205 cells assessed as cell viability after 48 hrs by MTT assay; format: functional, cell-based; settings: COLO 205, 48 h
# MCF7 [11] = experiment: Induction of DNA damage in human MCF7 cells assessed as decrease in TRF2 level measured at 4 uM after 24 hrs by Western blot analysis; format: functional, cell-based
# MCF7 [12] = experiment: Induction of DNA damage in human MCF7 cells assessed as increase in gamma H2AX level measured at 4 uM after 24 hrs by Western blot analysis; format: functional, cell-based
# [13] = target: Telomerase reverse transcriptase (Homo sapiens) (UniProt O14746); experiment: Inhibition of telomerase activity in human A549 cells at 4 uM after 24 hrs by TRAP eze XL telomerase assay
# MDA-MB-231 [14] = experiment: Cytotoxicity against human MDA-MB-231 cells assessed as cell viability after 48 hrs by MTT assay; format: functional, cell-based; settings: MDA-MB-231, 48 h
# MCF7 [15] = experiment: Induction of senescence in human MCF7 cells assessed as decrease in SKP2 expression at 4 uM after 24 hrs by Western blot analysis; format: functional, cell-based
# MCF7 [16] = experiment: Cell cycle arrest in human MCF7 cells assessed as accumulation at G1 phase at 4 uM after 24 hrs using propidium iodide staining by FACS analysis (reference value: 70%); format: functional
# A549 = experiment: Cytotoxicity against human A549 cells assessed as cell viability after 48 hrs by MTT assay; format: functional, cell-based; settings: A549, 48 h
# [17] = Cytotoxicity against human MCF10A cells assessed as cell viability after 48 hrs by MTT assay; format: cell-based; settings: MCF-10A
# HCT-116 [18] = experiment: Induction of senescence in human HCT116 cells assessed as increase in p21 expression at 4 uM after 24 hrs by Western blot analysis; format: functional, cell-based
# MDA-MB-231 [19] = experiment: Induction of senescence in human MDA-MB-231 cells expressing mutant p53 at 4 uM after 24 hrs by Western blot analysis; format: functional, cell-based
# HCT-116 [20] = experiment: Induction of senescence in human HCT116 cells assessed as increase in p16 expression at 4 uM after 24 hrs by Western blot analysis; format: functional, cell-based
# MCF7 [21] = experiment: Cytotoxicity against human MCF7 cells assessed as cell viability after 48 hrs by MTT assay; format: functional, cell-based; settings: MCF7, 48 h
# MCF7 [22] = experiment: Induction of senescence in human MCF7 cells assessed as increase in p53 expression at 4 uM after 24 hrs by Western blot analysis; format: functional, cell-based
# MCF7 [23] = experiment: Induction of DNA damage in human MCF7 cells assessed as increase in POT1 level measured at 4 uM after 24 hrs by Western blot analysis; format: functional, cell-based
# [24] = Cytotoxicity against human MIAPaCa2 cells assessed as cell viability after 48 hrs by MTT assay; format: functional, cell-based; settings: MIA PaCa-2, 48 h
# Chain of Telomerase reverse transcriptase (Homo sapiens) (O14746 whole entry): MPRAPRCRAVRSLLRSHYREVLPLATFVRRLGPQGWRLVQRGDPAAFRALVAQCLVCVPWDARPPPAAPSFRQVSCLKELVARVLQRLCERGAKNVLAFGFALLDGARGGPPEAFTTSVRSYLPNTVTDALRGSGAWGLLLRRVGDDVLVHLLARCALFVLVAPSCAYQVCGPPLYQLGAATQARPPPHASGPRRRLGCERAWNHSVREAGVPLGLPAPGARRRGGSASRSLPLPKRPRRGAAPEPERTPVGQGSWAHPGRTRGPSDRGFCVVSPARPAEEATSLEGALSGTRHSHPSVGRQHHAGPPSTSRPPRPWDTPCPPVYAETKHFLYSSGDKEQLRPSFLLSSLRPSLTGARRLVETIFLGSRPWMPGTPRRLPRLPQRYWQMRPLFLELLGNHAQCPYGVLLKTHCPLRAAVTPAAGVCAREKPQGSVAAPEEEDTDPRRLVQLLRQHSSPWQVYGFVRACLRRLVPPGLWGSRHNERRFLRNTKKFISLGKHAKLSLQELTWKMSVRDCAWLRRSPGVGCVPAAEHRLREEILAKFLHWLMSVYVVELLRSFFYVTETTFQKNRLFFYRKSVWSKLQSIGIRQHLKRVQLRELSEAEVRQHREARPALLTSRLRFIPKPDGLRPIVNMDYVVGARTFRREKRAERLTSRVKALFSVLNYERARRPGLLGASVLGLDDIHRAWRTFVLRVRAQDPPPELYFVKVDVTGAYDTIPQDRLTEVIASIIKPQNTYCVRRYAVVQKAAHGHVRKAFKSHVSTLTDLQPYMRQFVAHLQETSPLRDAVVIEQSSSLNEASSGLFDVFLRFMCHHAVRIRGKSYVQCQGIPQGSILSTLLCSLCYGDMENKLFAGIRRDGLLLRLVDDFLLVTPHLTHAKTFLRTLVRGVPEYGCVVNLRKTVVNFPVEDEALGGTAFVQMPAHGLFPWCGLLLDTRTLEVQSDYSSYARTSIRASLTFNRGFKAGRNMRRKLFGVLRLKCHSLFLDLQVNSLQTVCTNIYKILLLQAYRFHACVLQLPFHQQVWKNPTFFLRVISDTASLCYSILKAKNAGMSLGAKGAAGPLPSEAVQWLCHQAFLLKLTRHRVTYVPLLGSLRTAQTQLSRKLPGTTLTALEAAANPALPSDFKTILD
Structure (SMILES),Activity (SW116),Activity (MCF7 [1]),inhibition [2],Activity (MCF7 [3]),OD (MCF7 [4]),Activity (MCF7 [5]) [%],Activity (MCF7 (Homo sapiens)),Activity (MCF7 [6]) [%],Activity (MCF7 [8]),IC50 (COLO 205) [µM],IC50 (MDA-MB-231 [14]) [µM],inhibition (MCF7 [15]),Activity (MCF7 [16]) [%],IC50 (A549) [µM],IC50 [17] [µM],Activity (HCT-116 [18]),Activity (HCT-116 [20]),IC50 (MCF7 [21]) [µM],Activity (MCF7 [22]),IC50 [24] [µM],other results
Cc1cc(C#Cc2ccc(C(C)(C)C)cc2)ccc1-n1c(/C=C/c2c(Cl)cccc2Cl)nc2ccccc2c1=O,Active,Active,Active,Active,0.77,5,Active,2,Active,4.85,5.44,Active,93,5.6,15,Active,Active,2.27,Active,5.29,Activity (MCF7 [7]): Active; Activity (MCF7 [9]): Active; OD (MCF7 [10]): 0.39; inhibition (MCF7 [11]): Active; Activity (MCF7 [12]): Active; inhibition [13]: Active; Activity (MDA-MB-231 [19]): inactive; Activity (MCF7 [23]): Active
COc1cccc2c1C(=O)c1c(O)c3c(c(O)c1C2=O)C[C@@](O)(C(=O)CO)C[C@@H]3O[C@H]1C[C@H](N)[C@H](O)[C@H](C)O1 [DOXORUBICIN],Active,Active,–,Active,–,16,Active,2,–,0.37,0.16,Active,82,0.73,31,Active,Active,0.1,Active,0.14,Activity (MCF7 [9]): Active; Activity (MDA-MB-231 [19]): inactive
Cc1cc(C#Cc2ccc(C(C)(C)C)cc2)ccc1-n1c(/C=C/c2ccnc3ccccc23)nc2ccccc2c1=O,Active,Active,Active,Active,0.59,4,Active,2,Active,5.44,5.44,Active,94,5.87,28,Active,Active,2.45,Active,5.21,Activity (MCF7 [7]): Active; Activity (MCF7 [9]): Active; OD (MCF7 [10]): 0.24; inhibition (MCF7 [11]): Active; Activity (MCF7 [12]): Active; inhibition [13]: Active; Activity (MDA-MB-231 [19]): inactive; Activity (MCF7 [23]): Active
COc1ccc(/C=C/c2nc3ccccc3c(=O)n2-c2ccc(C#Cc3ccc(C(C)(C)C)cc3)cc2C)cc1O,Active,Active,Active,Active,0.84,5,Active,4,Active,5.19,5.69,Active,91,5.74,12,Active,Active,3.88,Active,6.8,OD (MCF7 [10]): 0.27; inhibition (MCF7 [11]): Active; Activity (MCF7 [12]): Active; Activity (MCF7 [23]): Active
